{"source": "PubChem BioAssay (NCI)", "assay_in_all_cases": "NCI-60 cell line screen, 48 h", "key": {"[1]": {"test_system": "786-0 renal"}, "[2]": {"test_system": "A498 renal"}, "[3]": {"test_system": "A549 NSCLC"}, "[4]": {"test_system": "ACHN renal"}, "[5]": {"test_system": "BT-549 breast"}, "[6]": {"test_system": "CAKI-1 renal"}, "[7]": {"test_system": "CCRF-CEM leukemia"}, "[8]": {"test_system": "COLO 205 colon"}, "[9]": {"test_system": "DU-145 prostate"}, "[10]": {"test_system": "HCC-2998 colon"}, "[11]": {"test_system": "HCT-116 colon"}, "[12]": {"test_system": "HCT-15 colon"}, "[13]": {"test_system": "HL-60(TB) leukemia"}, "[14]": {"test_system": "HOP-62 NSCLC"}, "[15]": {"test_system": "HOP-92 NSCLC"}, "[16]": {"test_system": "HS 578T breast"}, "[17]": {"test_system": "HT29 colon"}, "[18]": {"test_system": "IGROV1 ovarian"}, "[19]": {"test_system": "K-562 leukemia"}, "[20]": {"test_system": "KM12 colon"}, "[21]": {"test_system": "LOX IMVI melanoma"}, "[22]": {"test_system": "M14 melanoma"}, "[23]": {"test_system": "MALME-3M melanoma"}, "[24]": {"test_system": "MCF7 breast"}, "[25]": {"test_system": "MDA-MB-231 breast"}, "[26]": {"test_system": "MDA-MB-435"}, "[27]": {"test_system": "MOLT-4 leukemia"}, "[28]": {"test_system": "NCI-H226 lung"}}, "note": "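Protocol summary: plate cells (96-well), add compound at 5 concentrations, incubate 48 h, interpolate endpoints linearly. GI50 marks 50% less growth. TGI marks complete inhibition of growth.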"}
{"smiles": "COc1ccc(OC)c(N(CCN2C(=O)c3ccccc3C2=O)C(=O)CCl)c1", "values": [{"measurement": "GI50", "setting": "[1]", "value": 0.901, "unit": "µM"}, {"measurement": "TGI", "setting": "[1]", "value": 3.1, "unit": "µM"}, {"measurement": "GI50", "setting": "[2]", "value": 6.81, "unit": "µM"}, {"measurement": "TGI", "setting": "[2]", "value": 25.4, "unit": "µM"}, {"measurement": "GI50", "setting": "[3]", "value": 9.35, "unit": "µM"}, {"measurement": "TGI", "setting": "[3]", "value": 44.7, "unit": "µM"}, {"measurement": "GI50", "setting": "[4]", "value": 0.831, "unit": "µM"}, {"measurement": "TGI", "setting": "[4]", "value": 4.85, "unit": "µM"}, {"measurement": "GI50", "setting": "[5]", "value": 17.9, "unit": "µM"}, {"measurement": "TGI", "setting": "[5]", "value": 46.7, "unit": "µM"}, {"measurement": "GI50", "setting": "[6]", "value": 0.482, "unit": "µM"}, {"measurement": "TGI", "setting": "[6]", "value": 2, "unit": "µM"}, {"measurement": "GI50", "setting": "[7]", "value": 0.229, "unit": "µM"}, {"measurement": "TGI", "setting": "[7]", "value": 0.542, "unit": "µM"}, {"measurement": "GI50", "setting": "[8]", "value": 13.5, "unit": "µM"}, {"measurement": "TGI", "setting": "[8]", "value": 29.3, "unit": "µM"}, {"measurement": "GI50", "setting": "[9]", "value": 6.09, "unit": "µM"}, {"measurement": "TGI", "setting": "[9]", "value": 37.7, "unit": "µM"}, {"measurement": "GI50", "setting": "[10]", "value": 20.4, "unit": "µM"}, {"measurement": "TGI", "setting": "[10]", "value": 56, "unit": "µM"}, {"measurement": "GI50", "setting": "[11]", "value": 17.7, "unit": "µM"}, {"measurement": "TGI", "setting": "[11]", "value": 59.5, "unit": "µM"}, {"measurement": "GI50", "setting": "[12]", "value": 11.6, "unit": "µM"}, {"measurement": "TGI", "setting": "[12]", "value": "> 54.6", "unit": "µM"}, {"measurement": "GI50", "setting": "[13]", "value": 0.202, "unit": "µM"}, {"measurement": "TGI", "setting": "[13]", "value": 0.411, "unit": "µM"}, {"measurement": "GI50", "setting": "[14]", "value": 0.379, "unit": "µM"}, {"measurement": "TGI", "setting": "[14]", "value": 1.97, "unit": "µM"}, {"measurement": "GI50", "setting": "[15]", "value": 0.181, "unit": "µM"}, {"measurement": "TGI", "setting": "[15]", "value": 0.48, "unit": "µM"}, {"measurement": "GI50", "setting": "[16]", "value": 13.7, "unit": "µM"}, {"measurement": "TGI", "setting": "[16]", "value": 68.9, "unit": "µM"}, {"measurement": "GI50", "setting": "[17]", "value": 0.497, "unit": "µM"}, {"measurement": "TGI", "setting": "[17]", "value": 2.15, "unit": "µM"}, {"measurement": "GI50", "setting": "[18]", "value": 0.121, "unit": "µM"}, {"measurement": "TGI", "setting": "[18]", "value": 0.299, "unit": "µM"}, {"measurement": "GI50", "setting": "[19]", "value": 21.3, "unit": "µM"}, {"measurement": "TGI", "setting": "[19]", "value": "> 70.4", "unit": "µM"}, {"measurement": "GI50", "setting": "[20]", "value": 0.617, "unit": "µM"}, {"measurement": "TGI", "setting": "[20]", "value": 5.17, "unit": "µM"}, {"measurement": "GI50", "setting": "[21]", "value": 0.191, "unit": "µM"}, {"measurement": "TGI", "setting": "[21]", "value": 0.406, "unit": "µM"}, {"measurement": "GI50", "setting": "[22]", "value": 24.6, "unit": "µM"}, {"measurement": "TGI", "setting": "[22]", "value": "> 100", "unit": "µM"}, {"measurement": "GI50", "setting": "[23]", "value": 0.706, "unit": "µM"}, {"measurement": "TGI", "setting": "[23]", "value": 3.16, "unit": "µM"}, {"measurement": "GI50", "setting": "[24]", "value": 14.2, "unit": "µM"}, {"measurement": "TGI", "setting": "[24]", "value": 43, "unit": "µM"}, {"measurement": "GI50", "setting": "[25]", "value": 1.24, "unit": "µM"}, {"measurement": "TGI", "setting": "[25]", "value": 7.51, "unit": "µM"}, {"measurement": "GI50", "setting": "[26]", "value": 15.6, "unit": "µM"}, {"measurement": "TGI", "setting": "[26]", "value": 66.7, "unit": "µM"}, {"measurement": "GI50", "setting": "[27]", "value": 10.3, "unit": "µM"}, {"measurement": "TGI", "setting": "[27]", "value": 37.7, "unit": "µM"}, {"measurement": "GI50", "setting": "[28]", "value": 30.9, "unit": "µM"}, {"measurement": "TGI", "setting": "[28]", "value": "> 89.2", "unit": "µM"}]}
